Where two headings read alike, the source gives them in different places.
How the values were obtained:
truncated form of sAC = target: T1, truncated form of sAC (Rattus norvegicus, UniProt Q9Z286); assay: P site ligand test on truncated sAC; format: biochemical
T1 construct: sACt, amino acids 1-469
T1 sequence (Q9Z286 1-469): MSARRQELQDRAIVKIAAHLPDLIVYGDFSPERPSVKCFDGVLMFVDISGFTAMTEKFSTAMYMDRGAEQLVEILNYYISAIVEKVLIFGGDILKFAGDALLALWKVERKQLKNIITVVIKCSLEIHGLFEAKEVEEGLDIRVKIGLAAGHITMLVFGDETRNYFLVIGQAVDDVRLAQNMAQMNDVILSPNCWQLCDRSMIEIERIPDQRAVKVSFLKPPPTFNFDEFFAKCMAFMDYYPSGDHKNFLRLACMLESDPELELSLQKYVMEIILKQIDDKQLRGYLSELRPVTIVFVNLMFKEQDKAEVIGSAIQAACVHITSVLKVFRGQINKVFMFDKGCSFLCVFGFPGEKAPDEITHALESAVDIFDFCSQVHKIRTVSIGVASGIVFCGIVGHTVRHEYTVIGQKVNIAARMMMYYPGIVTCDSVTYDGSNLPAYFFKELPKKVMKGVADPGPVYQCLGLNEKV
From the text: (3) P site ligands and inhibitors of other ATP-utilizing enzymes.

tmACs = conditions: read-out: Km of tmACs for substrate ATP; cited from earlier work
sAC [1] = assay: Soluble adenylyl cyclase activity in cytosolic extracts from rat testis; conditions: read-out: Km for ATP; in the presence of MnCl2
sAC [2] = conditions: read-out: Km of sAC for substrate ATP; cited from earlier work
[3] = target: T2, full-length and truncated forms of sAC (Rattus norvegicus, UniProt Q9Z286); assay: Adenylyl cyclase assay in whole-cell sonicates from sAC-transfected HEK293 cells; format: biochemical; conditions: both full-length and truncated forms
T2 construct: we heterologously expressed the full-length cDNA in HEK293 cells; expressed in transfected cells; host or cells: HEK293, transient, pBK-CMV
From the text: Heterologous Expression. To confirm that the gene we isolated encoded an adenylyl cyclase, we heterologously expressed the full-length cDNA in HEK293 cells. The full-length and truncated sAC cDNAs were expressed from the library vector (pBK-CMV) under the control of the cytomegalovirus promoter after deletion of the intervening bacterial promoter sequences (as an NheI-SpeI fragment). The truncated sAC cDNA (sACt) represented a library clone that was missing an exon. The resultant protein shifted the reading frame after valine 469 (FIG. 1; underline), introducing two incorrect amino acids (serine and cysteine) followed by a stop codon. Expression constructs were transiently introduced into HEK293 by lipofectamine—mediated transfection (Life Technologies, Grand Island, N.Y.). One or two days after transfection, cells were harvested, resuspended in lysis buffer (50 mM Tris-HCl, pH 7.5/1 mM EDTA/1 mM DTT/0.1 mg/ml Leupeptin/1 mM phenylmethylsulfonyl fluoride) and disrupted by microtip probe sonication on ice. Whole-cell sonicates were ultramicrocentrifuged at >100,000×g for 10 minutes. Supernatants were cleared by a second centrifugation to yield ‘cytosolic’ extracts. Pellets were resuspended in lysis buffer by passage through a 27.5-gauge needle to generate ‘particulate fraction. […]

[4] = target: T3, Purified recombinant sACt protein (Rattus norvegicus, UniProt Q9Z286); assay: In vitro adenylyl cyclase assay with purified recombinant sACt; format: biochemical; conditions: for % Basal (adenylyl cyclase activity relative to activity in the absence of any salts): salts at 50 mM
T3 construct: sACt, amino acids 1-469, plus a C-terminal Hexahistidine tag; Hexahistidine (C); made in house; host or cells: insect HiFive cells (baculovirus, Bac-to-Bac)
T3 sequence (Q9Z286 1-469): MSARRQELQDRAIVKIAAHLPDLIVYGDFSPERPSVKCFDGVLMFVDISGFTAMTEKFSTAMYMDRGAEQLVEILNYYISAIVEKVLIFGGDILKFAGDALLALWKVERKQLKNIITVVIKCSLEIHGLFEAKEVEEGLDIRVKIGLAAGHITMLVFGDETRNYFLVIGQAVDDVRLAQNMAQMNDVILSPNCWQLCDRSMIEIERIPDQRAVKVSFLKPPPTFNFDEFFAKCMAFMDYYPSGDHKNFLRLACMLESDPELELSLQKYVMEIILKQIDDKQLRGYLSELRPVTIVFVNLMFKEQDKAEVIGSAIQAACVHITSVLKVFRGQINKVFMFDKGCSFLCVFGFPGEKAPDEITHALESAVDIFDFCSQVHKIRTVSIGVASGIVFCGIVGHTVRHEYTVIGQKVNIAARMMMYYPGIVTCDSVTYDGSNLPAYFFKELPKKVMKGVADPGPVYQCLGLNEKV
Experimental: (§1) The cell lines were starved for bicarbonate (grown in HEPES-bufferred, NaHCO3-free D-MEM under ambient CO2) for 24 hours. Cellular cAMP accumulation and in vitro adenylyl cyclase activity in the presence of [a^32P] ATP and MnCl2 or MgCl2 were assayed. In vitro adenylyl cyclase assays were performed at pH 7.5 in Tris-buffered solutions.
Kinetic parameters were determined using KinetAsyst II (IntelliKinetics).

soluble adenylyl cyclase = conditions: cited from earlier work
sACfl = sACfl (Rattus norvegicus, UniProt Q9Z286)
Experimental: as §1

Spirulina platensis CyaC [5] = target: T4, Spirulina platensis CyaC (Limnospira platensis, UniProt O32393); conditions: 0-60 mM NaHCO3, 100 μM ATP, 5 mM MnCl2
Spirulina platensis CyaC [6] = target: T4, Spirulina platensis CyaC; assay: biochemical
[7] = tested on: HEK293/V cells, which express endogenous tmACs; conditions: for Cellular cAMP accumulation in HEK293/V: vector transfected cells
Experimental: as §1
Among mammalian adenylyl cyclases, sAC appears to be the only form regulated by bicarbonate ions.

sAC [8] = assay: Adenylyl cyclase activity in anti-sAC immunoprecipitates from rat testis cytosol; format: biochemical; conditions: 40 mM NaHCO3 or 100 μM Forskolin
Experimental: Rat testis were tested for sAC activity by immunoassay. Immunoprecipitates from rat testis cytosol were tested using either pre-immune serum or α-sAC antisera. […]. […]. Data in FIG. 4b are presented as pmol of cAMP formed over 20 minutes, and values represent averages of duplicate determinations with standard deviations indicated.

sAC [9] = assay: Ecdysone inducible sAC expression in transiently transfected NIH3T3 cells; format: cell-based; conditions: transient transfection
From the text: The commercially available (Invitrogen) ecdysone inducible system (No, D. et al., PNAS, 1996, 93:3346-3351) is based on an insect hormone regulated transcriptional activator, the ecdysone receptor (EcR). This system takes advantage of the specificity of EcR for its own response element, and the lack of any cross-reactivity by any mammalian transcription factor. We stably introduced both the EcR and its requisite partner, Retinoid X Receptor (RXR) into NIH3T3 cells. Additionally, to confirm the efficacy of this expression system, we performed pilot experiments with 3T3 cells transiently transfected with both plasmids. […] This induction was overcome by co-expression of sAC antisense (αsAA). The sequence was the entire sAC truncated (sAC trunc) sequence cloned in reverse orientation with respect to the promoter. The coding sequence for sAC trunc was approximately 1 through 1710 and the antisense was nucleotides 1710 through 1. For the antisense experiment, we transiently transfected three plasmids into NIH3T3 cells: 1) Ecdysone receptor/RXR expression plasmid; 2) sAC trunc expression plasmid (driven by ecdysone promoter) and 3) antisense expression plasmid (driven by ecdysone promoter).

[10] = target: sAC as co-expressed with mammalian CAP; assay: cell-based or functional assay
sAC [11] = target: T5, sAC (Rattus norvegicus, UniProt Q9Z286); assay: Co-expression of mammalian CAP with sAC
T5 construct: expressed in transfected cells
T5 sequence (Q9Z286 whole entry): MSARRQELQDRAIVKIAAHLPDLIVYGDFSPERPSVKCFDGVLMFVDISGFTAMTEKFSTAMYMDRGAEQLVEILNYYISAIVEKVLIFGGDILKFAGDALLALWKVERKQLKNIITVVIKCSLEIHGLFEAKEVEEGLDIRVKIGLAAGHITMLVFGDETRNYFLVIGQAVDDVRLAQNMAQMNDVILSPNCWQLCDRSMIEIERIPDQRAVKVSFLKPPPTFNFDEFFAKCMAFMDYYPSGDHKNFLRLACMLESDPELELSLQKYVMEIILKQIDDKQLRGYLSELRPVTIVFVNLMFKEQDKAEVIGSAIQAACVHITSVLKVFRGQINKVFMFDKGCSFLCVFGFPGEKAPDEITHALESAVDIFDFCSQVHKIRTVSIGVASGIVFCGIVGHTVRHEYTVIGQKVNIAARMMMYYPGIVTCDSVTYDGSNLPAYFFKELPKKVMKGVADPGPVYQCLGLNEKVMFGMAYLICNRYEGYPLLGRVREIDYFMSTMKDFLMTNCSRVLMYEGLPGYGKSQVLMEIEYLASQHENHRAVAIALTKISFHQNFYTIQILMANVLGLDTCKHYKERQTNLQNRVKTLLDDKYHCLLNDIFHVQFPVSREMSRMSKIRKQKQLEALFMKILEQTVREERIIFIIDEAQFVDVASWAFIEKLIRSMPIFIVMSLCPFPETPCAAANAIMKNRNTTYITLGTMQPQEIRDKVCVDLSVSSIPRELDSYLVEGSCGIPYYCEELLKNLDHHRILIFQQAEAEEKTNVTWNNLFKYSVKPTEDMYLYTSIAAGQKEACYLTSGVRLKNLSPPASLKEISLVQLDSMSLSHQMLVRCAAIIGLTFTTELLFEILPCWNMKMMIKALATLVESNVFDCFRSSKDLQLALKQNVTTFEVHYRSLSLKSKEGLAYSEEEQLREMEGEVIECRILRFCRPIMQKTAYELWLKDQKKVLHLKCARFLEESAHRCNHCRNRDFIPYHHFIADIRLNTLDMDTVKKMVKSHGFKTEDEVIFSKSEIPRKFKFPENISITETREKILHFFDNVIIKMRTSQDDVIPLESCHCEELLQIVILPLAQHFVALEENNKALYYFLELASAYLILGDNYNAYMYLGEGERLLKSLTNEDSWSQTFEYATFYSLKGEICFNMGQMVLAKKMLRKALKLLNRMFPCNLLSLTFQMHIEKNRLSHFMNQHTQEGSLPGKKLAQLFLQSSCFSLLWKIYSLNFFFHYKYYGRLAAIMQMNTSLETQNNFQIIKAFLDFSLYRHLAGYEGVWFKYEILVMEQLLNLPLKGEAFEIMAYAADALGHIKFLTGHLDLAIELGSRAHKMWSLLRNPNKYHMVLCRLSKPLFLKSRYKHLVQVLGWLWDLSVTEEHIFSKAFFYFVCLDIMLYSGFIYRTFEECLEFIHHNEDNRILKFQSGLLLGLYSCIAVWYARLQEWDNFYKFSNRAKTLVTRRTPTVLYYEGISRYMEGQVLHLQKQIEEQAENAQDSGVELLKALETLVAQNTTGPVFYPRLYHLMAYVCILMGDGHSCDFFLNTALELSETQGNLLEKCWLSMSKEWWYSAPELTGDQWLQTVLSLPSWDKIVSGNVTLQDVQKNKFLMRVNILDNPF

Chain of sACfl (Q9Z286 whole entry): as above
T4 sequence (O32393 1-1202): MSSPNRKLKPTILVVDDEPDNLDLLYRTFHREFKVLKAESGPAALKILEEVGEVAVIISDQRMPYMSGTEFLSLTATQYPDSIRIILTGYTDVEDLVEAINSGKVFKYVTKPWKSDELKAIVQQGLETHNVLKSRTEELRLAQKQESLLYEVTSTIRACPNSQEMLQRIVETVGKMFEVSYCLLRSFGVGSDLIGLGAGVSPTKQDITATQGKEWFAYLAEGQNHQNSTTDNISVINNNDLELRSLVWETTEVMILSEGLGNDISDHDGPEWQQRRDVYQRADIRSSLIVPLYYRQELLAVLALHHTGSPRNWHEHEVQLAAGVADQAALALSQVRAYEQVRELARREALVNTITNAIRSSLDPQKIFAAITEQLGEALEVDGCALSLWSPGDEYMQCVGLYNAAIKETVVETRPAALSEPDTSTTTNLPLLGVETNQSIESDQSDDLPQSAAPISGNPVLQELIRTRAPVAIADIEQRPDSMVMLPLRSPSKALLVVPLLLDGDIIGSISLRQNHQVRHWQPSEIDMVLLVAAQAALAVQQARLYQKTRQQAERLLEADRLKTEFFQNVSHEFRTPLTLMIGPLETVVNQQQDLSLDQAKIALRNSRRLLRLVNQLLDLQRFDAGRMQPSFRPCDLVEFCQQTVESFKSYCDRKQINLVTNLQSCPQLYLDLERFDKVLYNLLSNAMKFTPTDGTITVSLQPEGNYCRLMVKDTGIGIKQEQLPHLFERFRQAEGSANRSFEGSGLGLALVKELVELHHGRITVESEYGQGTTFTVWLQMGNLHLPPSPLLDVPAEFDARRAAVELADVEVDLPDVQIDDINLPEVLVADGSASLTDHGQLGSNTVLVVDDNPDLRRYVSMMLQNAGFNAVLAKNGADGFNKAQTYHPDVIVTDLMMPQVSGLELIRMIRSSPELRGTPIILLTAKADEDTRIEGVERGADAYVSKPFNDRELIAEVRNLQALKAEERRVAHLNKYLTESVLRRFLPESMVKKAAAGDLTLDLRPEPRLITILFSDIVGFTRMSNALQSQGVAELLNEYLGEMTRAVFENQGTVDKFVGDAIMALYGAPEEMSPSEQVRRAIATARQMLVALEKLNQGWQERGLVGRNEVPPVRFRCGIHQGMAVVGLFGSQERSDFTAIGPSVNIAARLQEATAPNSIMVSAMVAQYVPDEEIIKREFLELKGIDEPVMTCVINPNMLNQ
T2 sequence (Q9Z286 whole entry, the tested form may be a part): as the sequence (Q9Z286 whole entry) above

Nc1ncnc2c1ncn2[C@H]1CC[C@@H](CO)O1 [2′,3′-dideoxyadenosine]
Sensitivity of sAC to P site ligand (truncated form of sAC): insensitivity

Nc1ncnc2c1ncn2[C@@H]1O[C@H](COP(=O)(O)OP(=O)(O)OP(=O)(O)O)[C@@H](O)[C@H]1O [ATP]
Km (tmACs): ~100 µM
Km (sAC [1]): 1200 µM
Km (sAC [2]): ~1000 µM

Nc1nc2c(ncn2[C@@H]2O[C@H](COP(=O)(O)OP(=O)(O)OP(O)(O)=S)[C@@H](O)[C@H]2O)c(=O)[nH]1 [GTPγS]
Response of heterologously expressed sAC to stimulators of tmAC activity [3]: completely insensitive

O=C([O-])O.[K+] [KHCO3]
% Basal (adenylyl cyclase activity relative to activity in the absence of any salts) [4]: 412 ± 6.1%

N[C@@H](Cc1ccc(O)c(O)c1)C(=O)O [L-dopa]
Potency of sAC inhibition relative to catechol estrogens (fold less potent) (soluble adenylyl cyclase): 1,000 fold

O=P([O-])([O-])O.[Na+].[Na+] [Na2HPO4]
% Basal (adenylyl cyclase activity relative to activity in the absence of any salts) [4]: 75 ± 2.6%

O=S([O-])[O-].[Na+].[Na+] [Na2SO3]
% Basal (adenylyl cyclase activity relative to activity in the absence of any salts) [4]: 164 ± 2.9%

O=S(=O)([O-])[O-].[Na+].[Na+] [Na2SO4]
% Basal (adenylyl cyclase activity relative to activity in the absence of any salts) [4]: 66 ± 4.6%

[Cl-].[Na+] [NaCl]
% Basal (adenylyl cyclase activity relative to activity in the absence of any salts) [4]: 93 ± 11.8%

O=C(O)O [NaHCO3]
Adenylyl cyclase activity in cellular lysates from HEK293/sACfl (sACfl; 50 mM NaHCO3): stimulated
Cellular cAMP accumulation in HEK293/sACfl (sACfl; after 24 hours bicarbonate starvation): stimulated cAMP accumulation
Fold stimulation of CyaC AC activity (Spirulina platensis CyaC [5]): 2.5 fold
EC50 (Spirulina platensis CyaC [6]): 18.8 ± 1.6 mM
Cellular cAMP accumulation in HEK293/V [7]: not in vector transfected HEK293 cells
Cellular cAMP accumulation in HEK293/V ([7]; listed as bicarbonate): unaffected
tmAC activity submaximally stimulated by forskolin ([7]; with forskolin): insensitive
EC50 [4]: 25.4 ± 7.6 mM
Fold stimulation of purified enzyme ([4]; 0-80 mM NaHCO3, 10 mM ATP, 40 mM MgCl2): greater than seven-fold
% Basal (adenylyl cyclase activity relative to activity in the absence of any salts) [4]: 411 ± 5.3%
Effect on immunoprecipitated AC activity (sAC [8]): stimulated

O=S([O-])O.[Na+] [NaHSO3]
% Basal (adenylyl cyclase activity relative to activity in the absence of any salts) [4]: 138 ± 4.6%

NCCc1ccc(O)c(O)c1 [dopamine]
Potency of sAC inhibition relative to catechol estrogens (fold less potent) (soluble adenylyl cyclase): 1,000 fold

NC[C@H](O)c1ccc(O)c(O)c1 [norepinephrine]
Potency of sAC inhibition relative to catechol estrogens (fold less potent) (soluble adenylyl cyclase): 1,000 fold

CC(C)CC[C@@H](O)[C@](C)(O)[C@H]1CC[C@@]2(O)C3=CC(=O)[C@@H]4C[C@@H](O)[C@@H](O)C[C@]4(C)[C@H]3CC[C@]12C [ponasterone A]
sAC activity in cells with ecdysone inducible sAC expression (sAC [9]): dependent increase in sAC activity

mammalian ortholog of yeast CAP (Cyclase Associated Protein)
sAC activity on co-expression [10]: 4 fold

B1: mammalian CAP: mammalian ortholog of yeast Cyclase Associated Protein, co-expressed with sAC (protein, UniProt Q01518 2-475, looked up)
Adenylyl cyclase-associated …: ADMQNLVERLERAVGRLEAVSHTSDMHRGYADSPSKAGAAPYVQAFDSLLAGPVAEYLKISKEIGGDVQKHAEMVHTGLKLERALLVTASQCQQPAENKLSDLLAPISEQIKEVITFREKNRGSKLFNHLSAVSESIQALGWVAMAPKPGPYVKEMNDAAMFYTNRVLKEYKDVDKKHVDWVKAYLSIWTELQAYIKEFHTTGLAWSKTGPVAKELSGLPSGPSAGSCPPPPPPCPPPPPVSTISCSYESASRSSLFAQINQGESITHALKHVSDDMKTHKNPALKAQSGPVRSGPKPFSAPKPQTSPSPKRATKKEPAVLELEGKKWRVENQENVSNLVIEDTELKQVAYIYKCVNTTLQIKGKINSITVDNCKKLGLVFDDVVGIVEIINSKDVKVQVMGKVPTISINKTDGCHAYLSKNSLDCEIVSAKSSEMNVLIPTEGGDFNEFPVPEQFKTLWNGQKLVTTVTEIAG
Increase of sAC activity on co-expression (sAC [11]): approximately four-fold

Reference: patent US6544768B1, “Mammalian soluble adenylyl cyclase” (Cornell Research Foundation, Inc., priority 1999, dated 2003)
